Experimental data taken from US10519177B2, “Heterocyclic compounds and uses thereof” (Plexxikon Inc., priority 2013, dated 2019).
Where two headings read alike, the source gives them in different places.

Key:
[1] = test system: MV-4-11 cells; assay: Oncology cell growth assay MV-4-11 (CellTiter Glo); format: cell-based; settings: Homo sapiens, MV4-11, 72 h, read-out: Cell activity (IC50 μM) MV-4-11 3d-Growth
How it was run: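 Growth read by CellTiter Glo luminescence after 72 h compound treatment of MLL-AF4-bearing MV-4-11 cells (3000/well). Titration: 8 points, 1:3 steps, maximum 10 μM, 0.2% DMSO final. Data normalized to DMSO wells, four-parameter fit gives pIC50.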

[2] = test system: bromodomain; assay: at least one of the bromodomain cell assays of Example 57; format: cell-based; settings: at least one of the bromodomain cell assays described in Example 57; read-out: IC50 in at least one of the bromodomain cell assays
[3] = molecular target: BRD4-BD12 (1-477) (Homo sapiens (Human), UniProt O60885); assay: Alphascreen binding assay BRD4-BD12; settings: BRD4(1 2) H4; read-out: Biochemical activity (IC50 μM) BRD4(1 2) H4
How it was run: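 In this competition format, compounds displace a biotinylated tetra-acetyl H4 peptide from E. coli-expressed human BRD4 bromodomain constructs captured on nickel chelate beads. The reaction runs at pH 7.5 with 2 mM DTT and detergent for 1 h at room temperature before a 30 min bead step.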

`Cc1noc(C)c1-c1cnc2c(-c3cnn(CC(F)(F)F)c3)cn(Cc3cccnn3)c2c1` [P-0531, 3,5-dimethyl-4-[1-(pyridazin-3-ylmethyl)-3-[1-(2,2,2-trifluoroethyl)pyrazin-4-yl]pyrrolo[3,2-b]pyridin-6-yl]isoxazole] was tested. Which IC50 ([1]; MV-4-11, 3d growth) did it give?
The IC50 was less than 1 µM.

And the IC50 [2]?
Its IC50 is less than 10000 nM.

And the IC50 [3]?
The IC50 was less than 1 µM.

How did the IC50 ([1]; MV-4-11, 3d growth) turn out when `Cc1noc(C)c1-c1cnc2c(-c3ccc(C(=O)O)c(Cl)c3)cn(CC3CCC(F)(F)CC3)c2c1` [P-0535, 2-chloro-4-[1-[(4,4-difluorocyclohexyl)methyl]-6-(3,5-dimethylisoxazol-4-yl)pyrrolo[3,2-b]pyridin-3-yl]benzoic acid] was run?
The IC50 was less than 1 µM.

And the IC50 [2]?
Its IC50 is less than 10000 nM.

And the IC50 [3]?
Its IC50 is less than 1 µM.

Which results are given for `COC(=O)Nc1ccc(-c2cn(CC3(F)CCCCC3)c3cc(-c4c(C)noc4C)cnc23)cc1` [P-0493, methyl N-[4-[6-(3,5-dimethylisoxazol-4-yl)-1-[(1-fluorocyclohexyl)methyl]pyrrolo[3,2-b]pyridin-3-yl]phenyl]carbamate]?
IC50 ([1]; MV-4-11, 3d growth): < 1 µM; IC50 [2]: < 10000 nM; IC50 [3]: < 1 µM

What does the source list for `CCOC(=O)c1ccc(-c2cn([C@@H](C)c3ccccn3)c3cc(-c4c(C)noc4C)cnc23)cc1` [P-0542, ethyl 4-[6-(3,5-dimethylisoxazol-4-yl)-1-[(1S)-1-(2-pyridyl)ethyl]pyrrolo[3,2-b]pyridin-3-yl]benzoate]?
IC50 ([1]; MV-4-11, 3d growth): < 1 µM; IC50 [2]: < 10000 nM; IC50 [3]: < 1 µM

With `[2H]C([2H])(C1CCC(F)(F)CC1)n1cc(-c2cn(C)nc2C)c2ncc(-c3c(C)noc3C)cc21` [P-0335, 4-[1-[dideuterio-(4,4-difluorocyclohexyl)methyl]-3-(1,3-dimethylpyrazol-4-yl)pyrrolo[3,2-b]pyridin-6-yl]-3,5-dimethyl-isoxazole] as the compound, how does the IC50 [1] read?
Its IC50 is less than 1 µM.

What about the IC50 [2] of the same compound?
The IC50 was less than 10000 nM.

What about the IC50 [3] of the same compound?
The IC50 was less than 1 µM.

With `Cn1cc(-c2cnc3c(-c4ccc(C(=O)O)cc4)cn(CC4CCC(F)(F)CC4)c3c2)ccc1=O` [P-0480, 4-[1-[(4,4-difluorocyclohexyl)methyl]-6-(1-methyl-6-oxo-3-pyridyl)pyrrolo[3,2-b]pyridin-3-yl]benzoic acid] as the compound, how does the IC50 ([1]; MV-4-11, 3d growth) read?
Its IC50 is 1 to 10 µM.

What about the IC50 [2] of the same compound?
The IC50 was less than 10000 nM.

And the IC50 [3]?
The IC50 was less than 1 µM.

With `Cc1noc(C)c1-c1cnc2c(-c3ccc(CC(=O)O)cc3)cn(CC3CCC(F)(F)CC3)c2c1` [P-0413, 2-[4-[1-[(4,4-difluorocyclohexyl)methyl]-6-(3,5-dimethylisoxazol-4-yl)pyrrolo[3,2-b]pyridin-3-yl]phenyl]acetic acid] as the compound, how does the IC50 [1] read?
The IC50 was less than 1 µM.

And the IC50 [2]?
Its IC50 is less than 10000 nM.

And the IC50 [3]?
The IC50 was less than 1 µM.

Which results are given for `[2H]C([2H])(C1CCC(F)(F)CC1)n1cc(C(=O)O)c2ncc(-c3c(C)noc3C)cc21` [P-0459, 1-[dideuterio-(4,4-difluorocyclohexyl)methyl]-6-(3,5-dimethylisoxazol-4-yl)pyrrolo[3,2-b]pyridine-3-carboxylic acid]?
IC50 ([1]; MV-4-11, 3d growth): 1 to 10 µM; IC50 [2]: < 10000 nM; IC50 [3]: < 1 µM

Which IC50 [1] does the source give for `Cc1noc(C)c1-c1cnc2c(-c3cnn(C(F)F)c3)cn(CC3(F)CCC(O)CC3)c2c1` (stereo not drawn) [P-0261, 4-[[3-[1-(difluoromethyl)pyrazol-4-yl]-6-(3,5-dimethylisoxazol-4-yl)pyrrolo[3,2-b]pyridin-1-yl]methyl]-4-fluoro-cyclohexanol] here?
Its IC50 is less than 1 µM.

What about the IC50 [2] of the same compound?
The IC50 was less than 10000 nM.

What about the IC50 [3] of the same compound?
The IC50 was less than 1 µM.

How did the IC50 [1] turn out when `Cc1noc(C)c1-c1cnc2c(-c3ccc(=O)n(C)c3)cn(CC3CCC(F)(F)CC3)c2c1` [P-0408, 5-[1-[(4,4-difluorocyclohexyl)methyl]-6-(3,5-dimethylisoxazol-4-yl)pyrrolo[3,2-b]pyridin-3-yl]-1-methyl-pyridin-2-one] was run?
Its IC50 is less than 1 µM.

What about the IC50 [2] of the same compound?
Its IC50 is less than 10000 nM.

And the IC50 [3]?
The IC50 was less than 1 µM.

How did the IC50 ([1]; MV-4-11, 3d growth) turn out when `Cc1ccc(-c2cn(Cc3ccccn3)c3cc(-c4c(C)noc4C)cnc23)cc1` [P-0805, 3,5-dimethyl-4-[3-(p-tolyl)-1-(2-pyridylmethyl)pyrrolo[3,2-b]pyridin-6-yl]isoxazole] was run?
Its IC50 is less than 1 µM.

And the IC50 [2]?
Its IC50 is less than 10000 nM.

What about the IC50 [3] of the same compound?
The IC50 was less than 1 µM.

`[2H]C([2H])(C1CCC(F)(F)CC1)n1cc(-c2cnco2)c2ncc(-c3c(C)noc3C)cc21` [P-0334, 4-[1-[dideuterio-(4,4-difluorocyclohexyl)methyl]-3-oxazol-5-yl-pyrrolo[3,2-b]pyridin-6-yl]-3,5-dimethyl-isoxazole] was tested. Which IC50 [1] did it give?
The IC50 was less than 1 µM.

And the IC50 [2]?
The IC50 was less than 10000 nM.

And the IC50 [3]?
Its IC50 is less than 1 µM.

How did the IC50 ([1]; MV-4-11, 3d growth) turn out when `Cc1noc(C)c1-c1cnc2c(-c3ccc([N+](=O)[O-])nc3)cn(CC3CCC(F)(F)CC3)c2c1` [P-0599, 4-[1-[(4,4-difluorocyclohexyl)methyl]-3-(6-nitro-3-pyridyl)pyrrolo[3,2-b]pyridin-6-yl]-3,5-dimethyl-isoxazole] was run?
Its IC50 is less than 1 µM.

What about the IC50 [2] of the same compound?
The IC50 was less than 10000 nM.

And the IC50 [3]?
Its IC50 is less than 1 µM.

What does the source list for `Cc1noc(C)c1-c1cnc2c(c1)c(CC1CCC(F)(F)CC1)cn2-c1ccc(C(=O)NC2CC2)cn1` [P-0533, N-cyclopropyl-6-[3-[(4,4-difluorocyclohexyl)methyl]-5-(3,5-dimethylisoxazol-4-yl)pyrrolo[2,3-b]pyridin-1-yl]pyridine-3-carboxamide]?
IC50 ([1]; MV-4-11, 3d growth): < 1 µM; IC50 [2]: < 10000 nM; IC50 [3]: < 1 µM

Which IC50 [1] does the source give for `[2H]C([2H])(C1CCC(F)(F)CC1)n1ccc2ncc(-c3c(C)nnn3CC)cc21` [P-0360, 1-[dideuterio-(4,4-difluorocyclohexyl)methyl]-6-(3-ethyl-5-methyl-triazol-4-yl)pyrrolo[3,2-b]pyridine] here?
The IC50 was 10 to 200 µM.

What about the IC50 [2] of the same compound?
Its IC50 is less than 10000 nM.

What about the IC50 [3] of the same compound?
Its IC50 is 1 to 10 µM.

Which IC50 ([1]; MV-4-11, 3d growth) does the source give for `Cc1noc(C)c1-c1cnc2c(-c3ccc(CC(=O)O)cc3)cn(CC3CCCCC3)c2c1` [P-0590, 2-[4-[1-(cyclohexylmethyl)-6-(3,5-dimethylisoxazol-4-yl)pyrrolo[3,2-b]pyridin-3-yl]phenyl]acetic acid] here?
The IC50 was less than 1 µM.

What about the IC50 [2] of the same compound?
The IC50 was less than 10000 nM.

What about the IC50 [3] of the same compound?
Its IC50 is less than 1 µM.

Which IC50 [1] does the source give for `Cc1noc(C)c1-c1cnc2c(-c3cnc(N)cn3)cn(CC3CCC(F)(F)CC3)c2c1` [P-0399, 5-[1-[(4,4-difluorocyclohexyl)methyl]-6-(3,5-dimethylisoxazol-4-yl)pyrrolo[3,2-b]pyridin-3-yl]pyrazin-2-amine] here?
Its IC50 is less than 1 µM.

And the IC50 [2]?
The IC50 was less than 10000 nM.

And the IC50 [3]?
The IC50 was less than 1 µM.

Which IC50 [1] does the source give for `Cc1nnn(C)c1-c1cnc2c(-c3cnn(C(F)F)c3)cn(CC3(F)CCC(F)(F)CC3)c2c1` [P-0419, 3-[1-(difluoromethyl)pyrazol-4-yl]-6-(3,5-dimethyltriazol-4-yl)-1-[(1,4,4-trifluorocyclohexyl)methyl]pyrrolo[3,2-b]pyridine] here?
Its IC50 is less than 1 µM.

And the IC50 [2]?
The IC50 was less than 10000 nM.

What about the IC50 [3] of the same compound?
The IC50 was less than 1 µM.

For `CNC(=O)c1ccc(-c2cn(CC3(F)CCCCC3)c3cc(-c4c(C)noc4C)cnc23)cc1` [P-0465, 4-[6-(3,5-dimethylisoxazol-4-yl)-1-[(1-fluorocyclohexyl)methyl]pyrrolo[3,2-b]pyridin-3-yl]-N-methyl-benzamide], which IC50 ([1]; MV-4-11, 3d growth) is on record?
The IC50 was less than 1 µM.

What about the IC50 [2] of the same compound?
The IC50 was less than 10000 nM.

What about the IC50 [3] of the same compound?
The IC50 was less than 1 µM.

What does the source list for `Cc1noc(C)c1-c1cnc2c(-c3cnn(CC(F)(F)F)c3)cn(Cc3ncccn3)c2c1` [P-0353, 3,5-dimethyl-4-[1-(pyrimidin-2-ylmethyl)-3-[1-(2,2,2-trifluoroethyl)pyrazol-4-yl]pyrrolo(3,2-b]pyridin-6-yl]isoxazole]?
IC50 [1]: < 1 µM; IC50 [2]: < 10000 nM; IC50 [3]: < 1 µM

Which IC50 [1] does the source give for `[2H]C([2H])(C1CCC(F)(F)CC1)n1cc(-c2ccc(O)nc2)c2ncc(-c3c(C)noc3C)cc21` [P-0342, 5-[1-[dideuterio-(4,4-difluorocyclohexyl)methyl]-6-(3,5-dimethylisoxazol-4-yl)pyrrolo[3,2-b]pyridin-3-yl]pyridin-2-ol] here?
The IC50 was less than 1 µM.

What about the IC50 [2] of the same compound?
The IC50 was less than 10000 nM.

What about the IC50 [3] of the same compound?
Its IC50 is less than 1 µM.

For `Cc1noc(C)c1-c1cnc2c(-c3ccc(S(=O)(=O)NC4CC4)cc3)cn([C@@H](C)c3ccccn3)c2c1` [P-0557, N-cyclopropyl-4-[6-(3,5-dimethylisoxazol-4-yl)-1-[(1S)-1-(2-pyridyl)ethyl]pyrrolo[3,2-b]pyridin-3-yl]benzenesulfonamide], which IC50 ([1]; MV-4-11, 3d growth) is on record?
The IC50 was less than 1 µM.

And the IC50 [2]?
The IC50 was less than 10000 nM.

What about the IC50 [3] of the same compound?
The IC50 was less than 1 µM.

How did the IC50 ([1]; MV-4-11, 3d growth) turn out when `Cc1noc(C)c1-c1cnc2c(-c3ccc(C(=O)O)cc3)cn([C@H](C)c3ccccc3)c2c1` [P-0583, 4-[6-(3,5-dimethylisoxazol-4-yl)-1-[(1R)-1-phenylethyl]pyrrolo[3,2-b]pyridin-3-yl]benzoic acid] was run?
The IC50 was less than 1 µM.

And the IC50 [2]?
The IC50 was less than 10000 nM.

What about the IC50 [3] of the same compound?
Its IC50 is less than 1 µM.

What does the source list for `Cc1noc(C)c1-c1cnc2c(-c3ccc(S(N)(=O)=O)cc3)cn(CC3(F)CCCCC3)c2c1` [P-0379, 4-[6-(3,5-dimethylisoxazol-4-yl)-1-[(1-fluorocyclohexyl)methyl]pyrrolo[3,2-b]pyridin-3-yl]benzenesulfonamide]?
IC50 [1]: < 1 µM; IC50 [2]: < 10000 nM; IC50 [3]: < 1 µM

What does the source list for `Cc1noc(C)c1-c1cnc2c(-c3cccc(CC(=O)O)c3)cn(CC3CCC(F)(F)CC3)c2c1` [P-0411, 2-[3-[1-[(4,4-difluorocyclohexyl)methyl]-6-(3,5-dimethylisoxazol-4-yl)pyrrolo[3,2-b]pyridin-3-yl]phenyl]acetic acid]?
IC50 [1]: < 1 µM; IC50 [2]: < 10000 nM; IC50 [3]: < 1 µM

Which IC50 ([1]; MV-4-11, 3d growth) does the source give for `Cc1noc(C)c1-c1cnc2c(-c3ccc(C(C)(C)C)cc3)cn([C@@H](C)c3ccccn3)c2c1` [P-0806, 4-[3-(4-tert-butylphenyl)-1-[(1S)-1-(2-pyridyl)ethyl]pyrrolo[3,2-b]pyridin-6-yl]-3,5-dimethyl-isoxazole] here?
Its IC50 is 1 to 10 µM.

And the IC50 [2]?
Its IC50 is less than 10000 nM.

What about the IC50 [3] of the same compound?
The IC50 was less than 1 µM.

For `Cc1noc(C)c1-c1cnc2c(-c3ccc(N)nc3)cn(CC3CCC(F)(F)CC3)c2c1` [P-0401, 5-[1-[(4,4-difluorocyclohexyl)methyl]-6-(3,5-dimethylisoxazol-4-yl)pyrrolo[3,2-b]pyridin-3-yl]pyridin-2-amine], which IC50 [1] is on record?
The IC50 was less than 1 µM.

What about the IC50 [2] of the same compound?
The IC50 was less than 10000 nM.

What about the IC50 [3] of the same compound?
The IC50 was less than 1 µM.
